Source: patent publication US5739171A, “Method for promoting animal growth” (priority 1993, dated 1998)
Where two headings read alike, the source gives them in different places.

Assays:
[1] = acute toxicity by oral administration (LD50), rats; details: rat, in vivo
Excerpt: Safety of the effective components of the composition of the present invention will be given hereunder. For example, acute toxicity by oral administration of sodium o-nitrophenol, sodium p-nitrophenol and sodium 5-nitroguaiacol is as follows:
Acute toxicity by oral administration is low. In addition, it has been also confirmed that those compounds are without problem in terms of toxicity by chronic toxicity test, teratogenic test and carcinogenic test. Further, as mentioned above, those compounds have been used as plant growth regulators and hair growth promoters throughout the world. In the past, they were used as injections but there was no example of adverse affection on the animals who took the plants to which they were applied, on the persons who were injected therewith and on the persons using the hair growth promoters containing them. Thus, their safety in humans has been practically confirmed. As mentioned above, o-nitrophenol, p-nitrophenol, 5-nitroguaiacol and salts thereof which are active ingredient(s) of the methods for growth promoting of the present invention have high safety.

Tilapia fry = type: in vivo; details: feed with 10 ppm of a single salt; for Body Weight Increase per 1 Tilapia after 4 Weeks: control 3.78; for Body Weight Increase per 1 Tilapia after 8 Weeks: control 10.10
Experimental: Tilapia fry with average body weight 2 g were used. Commercial feed for tilapia was given twice a day (morning and evening) in an amount of 5 to 8% of the body weight. The control group was given the commercial feed only, while the treated groups were given the commercial feed with the addition of the test compound(s) o-nitrophenol, p-nitrophenol and/or 5-nitroguaiacol, in the amount(s) shown in Table 3. Body weights were measured after 4 and 8 weeks.

[2] = female rats, read-out: LD50 for rats (female)
[3] = male rats, read-out: LD50 for rats (male)

| Compound | LD50 [1, 2] [mg/kg] | LD50 [1, 3] [mg/kg] | Body Weight Increase per 1 Tilapia after 4 Weeks (Tilapia fry) [g] | Body Weight Increase per 1 Tilapia after 4 Weeks, relative to control (100) (Tilapia fry) | Body Weight Increase per 1 Tilapia after 8 Weeks (Tilapia fry) [g] | Body Weight Increase per 1 Tilapia after 8 Weeks, relative to control (100) (Tilapia fry) |
| --- | --- | --- | --- | --- | --- | --- |
| COc1ccc([N+](=O)[O-])cc1O [Sodium 5-nitroguaiacol, sodium 5-nitroguaiacol] | 1270 | 3100 | 4.08 | 108 | 11.09 | 110 |
| O=[N+]([O-])c1ccccc1O.[Na] [Sodium o-nitrophenol, sodium o-nitrophenol] | 1460 | 2050 | 3.97 | 105 | 10.71 | 106 |
| O=[N+]([O-])c1ccc(O)cc1.[Na] [Sodium p-nitrophenol, sodium p-nitrophenol] | 482 | 1250 | 4.04 | 107 | 10.61 | 105 |
